Reference: patent US10259792B2, “Crystal of uracil compound” (priority 2015, dated 2019)

Key:
[1] = Blood concentration measurement test (oral administration to mice); assay type: in vivo; settings: 0.5% HPMC suspension, 50 mg/10 mL/kg, fed Balb/cA mice, compound (1) in plasma by LC-MS/MS
Protocol: A 0.5% HPMC dosing suspension (50 mg/10 mL/kg) of each of crystal I and crystal II was prepared. These suspensions were orally administered to mice (Balb/cA), which had been reared under feeding conditions, in a volume of 10 mL per kg body weight using an oral gavage tube. After administration, mice were returned to the mouse cage, and their conditions were checked. In the cage, water and feed were available ad libitum. At 0.5, 1, 2, 4, 6, and 8 hours after administration, mice were anesthetized with isoflurane, and 60 μL of blood was collected from the orbital venous plexus using a capillary blood collecting tube. The collected blood was ice-cooled, and centrifuged to separate plasma. The mice after blood collection were returned to the animal rearing cage, and their conditions after recovering from anesthesia were checked. After the final blood collection, the depth of isoflurane anesthesia was checked, and then the mice were euthanized by cervical dislocation.
From the concentrations of compound (1) in plasma measured by MRM method using LC-MS/MS, AUC0-24 hr was calculated by log-linear trapezoidal method using Phoenix WinNonlin (v6.3.0), software manufactured by Pharsight.

[2] = Solid stability test (under light exposure); assay type: physicochemical; settings: for Change of chemical purity / Change of crystal form by powder X-ray crystallography: 1 month under light exposure; for Chemical purity, Initial value / Chemical purity, One month later: HPLC; for Chemical purity, Initial value: before storage; for Chemical purity, One month later: stored 1 month under light exposure in clear glass bottle
Protocol: The solid stabilities of crystal I and crystal II obtained in the Examples, when stored for 1 month under light exposure, were measured under the following conditions.
Storage condition: Sample was placed in a transparent glass bottle, then the lid was placed, and the grove between the lid and the bottle was sealed by the grafting tape.
Measurement point: 1 Month
Stored amount: About 30 mg
Storage container: Clear glass bottle
Chemical purity of compound (1) in the sample solution was measured by HPLC analysis. The apparatuses, including the apparatus for data processing, were handled according to the processes and procedures instructed for the apparatuses. (Apparatus: Shimadzu Corporation LC-20AB)
Column: L-column 2 ODS manufactured by Chemicals Evaluation and Research Institute, 4.6×150 mm, 5 μm
Column temperature: 50° C.
Column flow rate: 1.0 mL/min
Mobile phase: A; Water, B; Acetonitrile
Sample concentration: 1.0 mg/mL

AUC(0-t) ([1]; Balb/cA, mouse, plasma, po, 50 mg/kg, read-out: AUC0-24 hr) [µM·h] | Change of chemical purity [2] | Change of crystal form by powder X-ray crystallography [2] | Chemical purity, Initial value [2] [%] | Chemical purity, One month later [2] [%] | AUC0-24 hr [1] [µM·h] | Structure (SMILES)
122 | did not change | no change of crystal form | 97.8 | 97.4 |  | C[C@@H](NS(=O)(=O)CCCOCn1ccc(=O)[nH]c1=O)c1cccc(OC2CCCC2)c1 [Crystal I, (R)—N-(1-(3-(cyclopentyloxy)phenyl)ethyl)-3-((2,4-dioxo-3,4-dihydropyrimidin-1(2H)-yl)methoxy)propane-1-sulfonamide]
 | did not change | no change of crystal form | 99.0 | 99.1 | 144.51 | C[C@@H](NS(=O)(=O)CCCOCn1ccc(=O)[nH]c1=O)c1cccc(OC2CCCC2)c1 [Crystal II, (R)—N-(1-(3-(cyclopentyloxy)phenyl)ethyl)-3-((2,4-dioxo-3,4-dihydropyrimidin-1(2H)-yl)methoxy)propane-1-sulfonamide]
